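How tested: cells in 96-well plates exposed to compound for 48 hours at five concentrations. TGI: concentration producing complete growth inhibition.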
Experiments:
Test in all cases: NCI-60 cell line screen, 48 h
NCI-H226 lung = tested on: NCI-H226 lung
T-47D breast = tested on: T-47D breast
SK-MEL-5 melanoma = tested on: SK-MEL-5 melanoma
HS 578T breast = tested on: HS 578T breast
A549 NSCLC = tested on: A549 NSCLC
SK-MEL-2 melanoma = tested on: SK-MEL-2 melanoma
NCI-H460 lung = tested on: NCI-H460 lung
HT29 colon = tested on: HT29 colon
SF-539 CNS = tested on: SF-539 CNS
SR leukemia = tested on: SR leukemia
OVCAR-4 ovarian = tested on: OVCAR-4 ovarian
A498 renal = tested on: A498 renal
CAKI-1 renal = tested on: CAKI-1 renal
KM12 colon = tested on: KM12 colon
HCT-15 colon = tested on: HCT-15 colon
LOX IMVI melanoma = tested on: LOX IMVI melanoma
MOLT-4 leukemia = tested on: MOLT-4 leukemia
NCI-H522 lung = tested on: NCI-H522 lung
SNB-75 CNS = tested on: SNB-75 CNS
COLO 205 colon = tested on: COLO 205 colon
EKVX NSCLC = tested on: EKVX NSCLC
PC-3 prostate = tested on: PC-3 prostate
MALME-3M melanoma = tested on: MALME-3M melanoma
MDA-MB-231 breast = tested on: MDA-MB-231 breast
MCF7 breast = tested on: MCF7 breast
IGROV1 ovarian = tested on: IGROV1 ovarian
RXF 393 renal = tested on: RXF 393 renal
HL-60(TB) leukemia = tested on: HL-60(TB) leukemia
M14 melanoma = tested on: M14 melanoma
OVCAR-5 ovarian = tested on: OVCAR-5 ovarian
MDA-MB-435 = tested on: MDA-MB-435
SF-295 CNS = tested on: SF-295 CNS
K-562 leukemia = tested on: K-562 leukemia
NCI/ADR-RES ovarian = tested on: NCI/ADR-RES ovarian
HOP-62 NSCLC = tested on: HOP-62 NSCLC
SF-268 CNS = tested on: SF-268 CNS
UACC-62 melanoma = tested on: UACC-62 melanoma
786-0 renal = tested on: 786-0 renal
NCI-H23 lung = tested on: NCI-H23 lung
HOP-92 NSCLC = tested on: HOP-92 NSCLC
CCRF-CEM leukemia = tested on: CCRF-CEM leukemia
SNB-19 CNS = tested on: SNB-19 CNS
MDA-N = tested on: MDA-N
DU-145 prostate = tested on: DU-145 prostate
ACHN renal = tested on: ACHN renal
TK-10 renal = tested on: TK-10 renal
SN12C renal = tested on: SN12C renal
SK-MEL-28 melanoma = tested on: SK-MEL-28 melanoma
U251 CNS = tested on: U251 CNS
OVCAR-3 ovarian = tested on: OVCAR-3 ovarian
HCT-116 colon = tested on: HCT-116 colon
SK-OV-3 ovarian = tested on: SK-OV-3 ovarian
BT-549 breast = tested on: BT-549 breast
UACC-257 melanoma = tested on: UACC-257 melanoma
SW-620 colon = tested on: SW-620 colon
OVCAR-8 ovarian = tested on: OVCAR-8 ovarian
RPMI-8226 leukemia = tested on: RPMI-8226 leukemia
UO-31 renal = tested on: UO-31 renal

c1ccc2c(CC3NCCN3)cccc2c1
TGI (NCI-H226 lung): > 100 µM
TGI (T-47D breast): > 100 µM
TGI (SK-MEL-5 melanoma): > 100 µM
TGI (HS 578T breast): > 100 µM
TGI (A549 NSCLC): > 100 µM
TGI (SK-MEL-2 melanoma): > 100 µM
TGI (NCI-H460 lung): > 100 µM
TGI (HT29 colon): > 100 µM
TGI (SF-539 CNS): > 100 µM
TGI (SR leukemia): > 100 µM
TGI (OVCAR-4 ovarian): > 100 µM
TGI (A498 renal): > 100 µM
TGI (CAKI-1 renal): > 100 µM
TGI (KM12 colon): > 100 µM
TGI (HCT-15 colon): > 100 µM
TGI (LOX IMVI melanoma): > 100 µM
TGI (MOLT-4 leukemia): > 100 µM
TGI (NCI-H522 lung): > 100 µM
TGI (SNB-75 CNS): > 100 µM
TGI (COLO 205 colon): > 100 µM
TGI (EKVX NSCLC): > 100 µM
TGI (PC-3 prostate): > 100 µM
TGI (MALME-3M melanoma): > 100 µM
TGI (MDA-MB-231 breast): > 100 µM
TGI (MCF7 breast): > 100 µM
TGI (IGROV1 ovarian): > 100 µM
TGI (RXF 393 renal): > 100 µM
TGI (HL-60(TB) leukemia): > 100 µM
TGI (M14 melanoma): > 100 µM
TGI (OVCAR-5 ovarian): > 100 µM
TGI (MDA-MB-435): > 100 µM
TGI (SF-295 CNS): > 100 µM
TGI (K-562 leukemia): > 100 µM
TGI (NCI/ADR-RES ovarian): > 100 µM
TGI (HOP-62 NSCLC): > 100 µM
TGI (SF-268 CNS): > 100 µM
TGI (UACC-62 melanoma): > 100 µM
TGI (786-0 renal): > 100 µM
TGI (NCI-H23 lung): > 100 µM
TGI (HOP-92 NSCLC): > 100 µM
TGI (CCRF-CEM leukemia): > 100 µM
TGI (SNB-19 CNS): > 100 µM
TGI (MDA-N): > 100 µM
TGI (DU-145 prostate): > 100 µM
TGI (ACHN renal): > 100 µM
TGI (TK-10 renal): > 100 µM
TGI (SN12C renal): > 100 µM
TGI (SK-MEL-28 melanoma): > 100 µM
TGI (U251 CNS): > 100 µM
TGI (OVCAR-3 ovarian): > 100 µM
TGI (HCT-116 colon): > 100 µM
TGI (SK-OV-3 ovarian): > 100 µM
TGI (BT-549 breast): > 100 µM
TGI (UACC-257 melanoma): > 100 µM
TGI (SW-620 colon): > 100 µM
TGI (OVCAR-8 ovarian): > 100 µM
TGI (RPMI-8226 leukemia): > 100 µM

OCCCNCc1ccncc1
TGI (NCI-H226 lung): > 100 µM
TGI (T-47D breast): > 100 µM
TGI (SK-MEL-5 melanoma): > 100 µM
TGI (HS 578T breast): > 100 µM
TGI (A549 NSCLC): > 100 µM
TGI (UO-31 renal): > 100 µM
TGI (SK-MEL-2 melanoma): > 100 µM
TGI (NCI-H460 lung): > 100 µM
TGI (HT29 colon): > 100 µM
TGI (SF-539 CNS): > 100 µM
TGI (SR leukemia): > 100 µM
TGI (OVCAR-4 ovarian): > 100 µM
TGI (A498 renal): > 100 µM
TGI (CAKI-1 renal): > 100 µM
TGI (KM12 colon): > 100 µM
TGI (HCT-15 colon): > 100 µM
TGI (LOX IMVI melanoma): > 100 µM
TGI (MOLT-4 leukemia): > 100 µM
TGI (NCI-H522 lung): > 100 µM
TGI (SNB-75 CNS): > 100 µM
TGI (COLO 205 colon): > 100 µM
TGI (EKVX NSCLC): > 100 µM
TGI (PC-3 prostate): > 100 µM
TGI (MALME-3M melanoma): > 100 µM
TGI (MDA-MB-231 breast): > 100 µM
TGI (MCF7 breast): > 100 µM
TGI (IGROV1 ovarian): > 100 µM
TGI (RXF 393 renal): > 100 µM
TGI (HL-60(TB) leukemia): > 100 µM
TGI (M14 melanoma): > 100 µM
TGI (OVCAR-5 ovarian): > 100 µM
TGI (MDA-MB-435): > 100 µM
TGI (SF-295 CNS): > 100 µM
TGI (K-562 leukemia): > 100 µM
TGI (NCI/ADR-RES ovarian): > 100 µM
TGI (HOP-62 NSCLC): > 100 µM
TGI (SF-268 CNS): > 100 µM
TGI (UACC-62 melanoma): > 100 µM
TGI (786-0 renal): > 100 µM
TGI (NCI-H23 lung): > 100 µM
TGI (HOP-92 NSCLC): > 100 µM
TGI (CCRF-CEM leukemia): > 100 µM
TGI (SNB-19 CNS): > 100 µM
TGI (MDA-N): > 100 µM
TGI (DU-145 prostate): > 100 µM
TGI (ACHN renal): > 100 µM
TGI (TK-10 renal): > 100 µM
TGI (SN12C renal): > 100 µM
TGI (SK-MEL-28 melanoma): > 100 µM
TGI (U251 CNS): > 100 µM
TGI (OVCAR-3 ovarian): > 100 µM
TGI (HCT-116 colon): > 100 µM
TGI (SK-OV-3 ovarian): > 100 µM
TGI (BT-549 breast): > 100 µM
TGI (SW-620 colon): > 100 µM
TGI (OVCAR-8 ovarian): > 100 µM
TGI (RPMI-8226 leukemia): > 100 µM

CN(C)CCNc1ccc(NCC[N+](C)(C)Cc2ccc([N+](=O)[O-])cc2)c2c1C(=O)c1ccccc1C2=O
TGI (NCI-H226 lung): > 25 µM
TGI (T-47D breast): > 25 µM
TGI (SK-MEL-5 melanoma): > 25 µM
TGI (HS 578T breast): > 25 µM
TGI (A549 NSCLC): > 25 µM
TGI (UO-31 renal): > 25 µM
TGI (SK-MEL-2 melanoma): > 25 µM
TGI (HT29 colon): > 25 µM
TGI (SR leukemia): > 25 µM
TGI (A498 renal): > 25 µM
TGI (CAKI-1 renal): > 25 µM
TGI (KM12 colon): > 25 µM
TGI (LOX IMVI melanoma): > 25 µM
TGI (MOLT-4 leukemia): > 25 µM
TGI (NCI-H522 lung): > 25 µM
TGI (SNB-75 CNS): > 25 µM
TGI (COLO 205 colon): > 25 µM
TGI (EKVX NSCLC): > 25 µM
TGI (PC-3 prostate): > 25 µM
TGI (MALME-3M melanoma): > 25 µM
TGI (MDA-MB-231 breast): > 25 µM
TGI (MCF7 breast): > 25 µM
TGI (IGROV1 ovarian): > 25 µM
TGI (RXF 393 renal): > 25 µM
TGI (HL-60(TB) leukemia): 13.6 µM
TGI (M14 melanoma): > 25 µM
TGI (OVCAR-5 ovarian): > 25 µM
TGI (MDA-MB-435): > 25 µM
TGI (SF-295 CNS): > 25 µM
TGI (NCI/ADR-RES ovarian): > 25 µM
TGI (HOP-62 NSCLC): > 25 µM
TGI (SF-268 CNS): > 25 µM
TGI (UACC-62 melanoma): > 25 µM
TGI (786-0 renal): > 25 µM
TGI (NCI-H23 lung): > 25 µM
TGI (HOP-92 NSCLC): > 25 µM
TGI (MDA-N): > 25 µM
TGI (DU-145 prostate): > 25 µM
TGI (ACHN renal): > 25 µM
TGI (TK-10 renal): > 25 µM
TGI (SN12C renal): > 25 µM
TGI (SK-MEL-28 melanoma): > 25 µM
TGI (U251 CNS): > 25 µM
TGI (OVCAR-3 ovarian): > 25 µM
TGI (HCT-116 colon): > 25 µM
TGI (SK-OV-3 ovarian): > 25 µM
TGI (BT-549 breast): > 25 µM
TGI (UACC-257 melanoma): > 25 µM
TGI (SW-620 colon): > 25 µM
TGI (OVCAR-8 ovarian): > 25 µM
TGI (RPMI-8226 leukemia): > 25 µM

Reference: PubChem BioAssay (NCI)
